Measurements published in patent US5364931A (Bayer Aktiengesellschaft, priority 1990, dated 1994).
pIC50: −log10 of the molar value.

Legend:
HIV protease = molecular target: T1, HIV protease (Human immunodeficiency virus type 1 group M subtype B, UniProt P04585); assay: HIV-specific protease enzyme test (RP-HPLC), compounds of formula (I); type: biochemical; details: purified HIV protease, synthetic Gag cleavage-site peptide, compounds of general formula (I)
T1 construct: purified HIV protease was incubated with synthetic peptide
Method: (§1) The results for the examples listed below were determined by the HIV test system described in the following literature reports [cf. Hansen, J., Billich, S., Schulze, T. Sukrow, S. and Molling, K. (1988), EMBO Journal, Vol. 7, No. 6, pages 1785-1791]: purified HIV protease was incubated with synthetic peptide which imitates a cleavage site in the Gag precursor protein and represents an in vivo cleavage site of the HIV protease. The resulting cleavage products of the synthetic peptide were analysed by means of reverse phase high performance liquid chromatography (RP-HPLC). The IC50 values given relate to the substance concentration which causes a 50% inhibition of protease activity under the abovementioned test conditions.

HIV-1 protease = molecular target: T2, HIV-1 protease (Human immunodeficiency virus type 1 group M subtype B, UniProt P04585); assay: HIV-specific protease enzyme test (RP-HPLC), HIV-1; type: biochemical
T2 construct: purified HIV protease was incubated with synthetic peptide
Method: as §1

HIV-2 protease = molecular target: T3, HIV-2 protease (Human immunodeficiency virus type 2 subtype A, UniProt P04584); assay: HIV-specific protease enzyme test (RP-HPLC), HIV-2; type: biochemical; details: compounds of general formula (VIa)
T3 construct: purified HIV protease was incubated with synthetic peptide
T3 sequence (P04584 514-612 limits assumed): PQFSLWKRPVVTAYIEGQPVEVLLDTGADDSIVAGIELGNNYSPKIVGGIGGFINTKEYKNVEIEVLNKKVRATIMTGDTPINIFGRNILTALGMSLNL
Method: as §1

HIV-I protease = HIV-I protease (Human immunodeficiency virus type 1 group M subtype B, UniProt P04585); details: read-out: IC50 (inactivation of HIV-I protease); cited from earlier work

With “Diethyl 1-{(3S, 4S)-4-[(2S)-3-(tert-butylsulphonyl)-2-(1-naphthylmethyl)propanoyl]valinylamino]-5-cyclohexyl-3-hydroxy-pentanoyl}-(2R or 2S)-2-(pyrrolidinyl)phosphonate [26 (polar)]” the pIC50 (HIV protease) was 7.00.
CCOP(=O)(OCC)C1CCCN1C[C@H](O)[C@H](CC1CCCCC1)NC(=O)OC(C)(C)C (mixture of isomers) [5 (polar), Diethyl 1-{(2S, 3S)-3-[(tert-butoxycarbonyl)-amino]-4-cyclohexyl-2-hydroxy-butyl}-(2R and 2S)-2 (pyrrolidinyl)-phosphonate] gave a pIC50 (HIV protease) of 7.00.
Molecule CCOP(=O)(OCC)C1CCCN1C[C@H](O)[C@H](CC1CCCCC1)NC(=O)OC(C)(C)C (mixture of isomers) [5 (non-polar), Diethyl 1-{(2S, 3S)-3-[(tert-butoxycarbonyl)-amino]-4-cyclohexyl-2-hydroxy-butyl}-(2R and 2S)-2 (pyrrolidinyl)-phosphonate] has a pIC50 (HIV protease) of 6.00.
For CC(C)[C@H](NC(=O)[C@H](Cc1ccccc1)NC(=O)CC(C)(C)C)C(=O)N[C@@H](Cc1ccccc1)C1CO1 (stereo partly drawn) [Example 46], the pIC50 (HIV-1 protease) was 8.30 and the pIC50 (HIV-2 protease) was 8.00.
For O=[N+]([O-])c1ccc(OCC2CO2)cc1 (stereo not drawn) [EPNP, 1,2-epoxy-3-(4-nitrophenoxy)propane], the pIC50 (HIV-I protease) is listed as 3.35.
